Source: US20210038732A1, “ANTICANCER MICRORNA AND LIPID FORMULATIONS THEREOF” (INTERNA TECHNOLOGIES B.V., priority 2018, published 2021)

What was measured:
4T1 mouse tumor cells = assay: Re-challenge of surviving treated mice with 4T1 cells (Example 4.4); assay type: in vivo
Method: To investigate the long-term immunity in miRNA-193a treated mice against 4T1 cells, on day 75 after inoculation, mice treated with miRNA-193a and 8 naïve (non-tumor bearing) mice were re-challenged by subcutaneous injection of 3×10^5 4T1 mouse tumor cells in PBS (0.1 mL/mouse) into the right front flank. TV and BW were monitored for 3 weeks. Then, to investigate the immunization status of miRNA-193a treated mice against other cell types, on day 101, mice treated with miRNA-193a and 8 naïve (non-tumor bearing) mice were re-challenged by subcutaneous injection of H22 (mouse liver tumor cells) cells in PBS (0.1 mL/mouse) into the right lower flank.

[1] = tested on: orthotopic human Hep3b hepatocellular carcinoma tumors; assay: Orthotopic Hep3b model, miRNAs in NOV340, AFP and tumor weight (Example 4.13); assay type: in vivo, mice; conditions: NOV340 nanoparticles, 6 mg/kg iv QODx9 for 3 weeks; day 39
Method: Six to eight weeks old female SCID/Beige mice (Shanghai Lingchang Bio-Technology Co. Ltd, Shanghai, China) were orthotopically implanted with a single 2×2×2 mm piece of a subq grown Hep3b tumor into the left liver lobe. Mice were randomized based on day 21 AFP levels. At the time of randomization, the AFP levels (ng/ml plasma) ranged between 401 and 40628 ng/ml (median 2536, IQR=1037-5510). Treatments were with sorafenib, with vehicle control, or with various miRNAs (or scrambled miRNA control) encapsulated in NO340 lipid nanoparticles (Simonson and Das, Mini Rev Med Chem, 2015, 15(6): 467-474, PMID: 25807941). Treatments started on day 22 and continued for three weeks (dosing scheme in Table 21). AFP was measured once a week for 4 weeks, and BW was measured twice a week. At the end of the study tumor weights were also determined. QOD×9=one injection every other day for nine times; BID=twice daily; po=per oral.
After terminal sacrifice on day 39, AFP levels and tumor weights were determined.

[2] = tested on: 4T1 triple negative breast cancer tumors; assay: Primary tumor regrowth and survival after 4T1 tumor resection (Example 4.4); assay type: in vivo, mice
Method: Six to eight weeks old female BALB/c mice (Shanghai Lingchang Bio-Technology Co. Ltd, Shanghai, China) were injected with 3×10^5 4T1 mouse tumor cells in PBS (0.1 mL/mouse) into the mammary fat pad. At the time of randomization, the TVs ranged between 69.9 and 173.9 mm3 (median 105.7, IQR=100.7-125.4). Body weights and TVs (caliper measurements) were determined 2-3 times/week. After randomization (day 9 after tumor inoculation) mice received different treatments under different dosing regimen (see Table 9 for dosing scheme). For all groups, 4 mice are sacrificed 48h after the 2nd miRNA-193a injection in the first week and in the 2nd week. Primary tumors were surgically removed from the mammary fat pad on day 20 after inoculation. After a recovery period of 3 days, treatment was resumed for 6 more weeks until day 63. Re-growth of (distant) tumors was monitored in addition to BW, and mice were sacrificed if end-points were met.

A2058 cells = assay: In vitro transwell migration assay; assay type: cell-based, human; conditions: miRNA-193a-3p at 10 nM; vs scrambled
Method: To check the migratory ability of cells, a Boyden Chamber assay was performed, which is based on a chamber of two medium-filled compartments separated by a […] pore size membrane (BD falcon). In this assay, depending on cell type 60,000-120,000 cells were seeded in the upper compartment of the membrane in serum free medium and were allowed to migrate through the pores of the membrane into the lower compartment, in which serum is present in the media. The serum acts as a chemoattractant. After an appropriate incubation time, the membrane between two compartments was fixed, stained and 6 different images from each membrane were taken. The number of migratory cells were counted using Image J analysis.
(§1) To assess the impact of miRNA-193a-3p on adenosine generation, the release of free phosphate in A2058 melanoma cells was measured as a read out for ATP, ADP, and AMP dephosphorylation in supernatants. […] Similar results were found by measuring the direct amount of adenosine in cell culture supernatants (FIG. 16B). Further, the role of miRNA-193a in A2058 cancer cell migration was investigated.

HEP3B, SNU449, A2058 = assay: Cell cycle distribution by imaging of nuclei (Example 4.9); assay type: cell-based; conditions: 1 nM, 3 nM and 10 nM, concentration-dependent; vs mock
Method: Depending on cancer cell type 3000-6000 cells were seeded in a 96 well plate. After cells attached, they were transfected with different concentrations of miRNA-193a and cell cycle profile was measured at different time points. At selected time points media was aspirated from wells and DNA staining solution (Hoescht 33342/Saponin/PFA) was added to each well and incubated for 2 hours at 37° C. Then, cell images were taken using Thermo Celllnsite in which nuclei were specified and nuclei intensity were measured. Nuclei intensity was analyzed using program R to determine the different phases of the cell cycle (G0/G1, S, G2/M) based on the DNA content.
Similar phenotype has been observed in Panc1 (pancreatic cancer cell) as well as H1975 (lung cancer cell) (data not shown). […] MPP2 and STMN1 associate with cytoskeleton and therefore regulate cell division and proliferation at the G2/M phase, while YWHAZ and CCNA2 play roles in regulation of G2/M phase checkpoint by binding and sequestering the cyclin-dependent kinases.

NT5E and ENTPD1 = NT5E and ENTPD1 expression at mRNA and protein level (RT-PCR, western blot); assay type: cell-based; conditions: 10 nM, variety of cell lines
Method: To prepare cDNA, first 100 ng total RNA was mixed with Random Hexamers (Qiagen; final concentration 2 μM) in a final volume of 12.5 μl in NFW, denatured for 5 min at 70° C. and immediately cooled on ice. Next, 7.5 μl of a cDNA synthesis mix was added, consisting of 4 μl 5×RT Buffer (Promega), 0.4 μl 25 mM dNTPs (Promega), 1 μl 200 U/μL MMLV RT-enzyme (Promega), 0.5 μL 40 U/μL RNAse Inhibitor (Promega) and 1.6 μL NFW. The following cDNA synthesis protocol was used:
Approximately 1×10^6 cells were harvested and lysed in immunoprecipitation RIPA lysis buffer and the lysates were blotted onto a PVDF membrane. Membranes were probed overnight with primary antibodies and bound antibodies were visualized using HRP-linked secondary antibodies (Cell-Signalling). The antibodies used for western blot included anti-NT5E (D7F9A) from Cell Signalling Technology, and anti-αTubulin from Santa Cruz. αTubulin was used as a loading control for the western blot experiment.
as §1

miRNA-193a: duplex of the miRNA-193a-3p of SEQ ID NO: 218 (mimic, sense) with antisense strand SEQ ID NO: 219; naked in vitro, formulated in vivo (sense UGGGACUUUGUAGGCCAGUUTT; antisense AACUGGCCUACAAAGUCCCAGU; chemistry not given here; listed as Homo sapiens)
Treated mice that showed tumor take when re-challenged with 4T1 cells (4T1 mouse tumor cells; re-challenge day 75): 3 mice
Tumor take/growth after re-challenge with 4T1 cells (4T1 mouse tumor cells; re-challenge day 75, 14 days post end of treatment, vs naïve mice): Pronounced prevention of tumor take/growth
Growth of Hep3b HCC tumors measured by AFP and tumor weight [1]: did not inhibit growth
Tumor re-growth after tumor excision ([2]; formulated in diamino lipid nanoparticles, 10 mg/kg BIW iv): reduced tumor re-growth
Mouse survival ([2]; formulated in diamino nanoparticles, 10 mg/kg BIW iv): positively affected mouse survival
Mice that showed a tumor re-growth after primary tumor removal ([2]; primary tumor removal day 20, 10 mg/kg twice weekly for further 6 weeks): 1 out of 10
Migration ability of A2058 cells (A2058 cells): significantly suppressed migration ability
G2/M arrest (HEP3B, SNU449, A2058): enhances the G2/M arrest
Expression of both enzymes involved in adenosine generation pathway (NT5E, ENTPD1) (NT5E and ENTPD1): downregulated the expression of both enzymes
